Measurements published in ChEMBL document CHEMBL6078677, “Discovery and optimization of tetrahydroacridine derivatives as a novel class of antibiotics against multidrug-resistant Gram-positive pathogens by targeting type I signal peptidase and disrupting bacterial membrane” (Eur J Med Chem, 2025).
Converted amounts (≈) assume the structure as drawn. The source made the active and inactive calls. The rule behind the calls is not given here.

Key:
[1] = test system: Staphylococcus aureus; assay: Antimicrobial activity against Staphylococcus aureus YZSA-24 harboring erythromycin resistance rRNA methylase C and methicillin resistance gene resistance locus assessed as inhibition of visible growth of bacteria incubated for 20 hrs by broth microdilution method; type: functional
[2] = Hemolytic activity in Kunming mouse erythrocytes measured after 1 hrs by absorbance based assay; type: toxicity, cell-based, Erythrocyte
[3] = test system: Staphylococcus aureus; assay: Drug resistance, ratio of MIC for Staphylococcus aureus ATCC 29213 measured after 28 days to MIC for Staphylococcus aureus ATCC 29213 measured after 20 hrs; type: functional
[4] = test system: Enterococcus faecium; assay: Antimicrobial activity against Enterococcus faecium MC38 harboring erythromycin resistance rRNA methylase B and oxazolidinone-phenicol transferable resistance gene assessed as inhibition of visible growth of bacteria incubated for 20 hrs by broth microdilution method; type: functional
[5] = Cytotoxicity against human Caco-2 cells assessed as cell viability at 8 times of MIC incubated for 48 hrs by CCK8 assay (reference value: 99.54 %); type: toxicity, cell-based; settings: read-out: Activity
[6] = Cytotoxicity against human Caco-2 cells assessed as cell viability at 2 times of MIC incubated for 48 hrs by CCK8 assay (reference value: 99.54 %); type: toxicity, cell-based; settings: read-out: Activity
[7] = test system: Staphylococcus aureus; assay: microbe, parasite or virus in culture; type: functional; settings: M92-1, time 20 hrs
Description: Antimicrobial activity against Staphylococcus aureus M92-1 harboring erythromycin resistance rRNA methylase B, tetracycline efflux protein L and oxazolidinone-phenicol transferable resistance gene assessed as inhibition of visible growth of bacteria incubated for 20 hrs by broth microdilution method

[8] = test system: Enterococcus faecalis; assay: Antimicrobial activity against Enterococcus faecalis JH2-2 assessed as inhibition of visible growth of bacteria incubated for 20 hrs by broth microdilution method; type: functional
[9] = Cytotoxicity against human HEp-2 cells assessed as cell viability at 2 times of MIC incubated for 48 hrs by CCK8 assay (reference value: 100 %); type: toxicity, cell-based; settings: read-out: Activity
[10] = test system: Staphylococcus aureus; assay: Bactericidal activity against Staphylococcus aureus ATCC 29213 assessed as decrease in bacterial number measured within 12 hrs by time-kill kinetics assay; type: functional, organism-based
[11] = Cytotoxicity against human HEp-2 cells assessed as cell viability at 8 times of MIC incubated for 48 hrs by CCK8 assay (reference value: 100 %); type: toxicity, cell-based; settings: read-out: Activity
[12] = test system: Streptococcus suis; assay: microbe, parasite or virus in culture; type: functional; settings: SH0918, time 20 hrs
Description: Antimicrobial activity against Streptococcus suis SH0918 harboring erythromycin-resistance rRNA methylase B, tetracycline efflux protein O and oxazolidinone phenicol transferable resistance gene assessed as inhibition of visible growth of bacteria incubated for 20 hrs by broth microdilution method

[13] = Cytotoxicity against human Caco-2 cells assessed as cell viability at 1 time of MIC incubated for 48 hrs by CCK8 assay (reference value: 99.54 %); type: toxicity, cell-based; settings: read-out: Activity
[14] = test system: Pseudomonas aeruginosa; assay: Antimicrobial activity against Pseudomonas aeruginosa PA01 assessed as inhibition of visible growth of bacteria incubated for 20 hrs by broth microdilution method; type: functional
[15] = Cytotoxicity against human HEp-2 cells assessed as cell viability at 16 times of MIC incubated for 48 hrs by CCK8 assay (reference value: 100 %); type: toxicity, cell-based; settings: read-out: Activity
[16] = test system: Staphylococcus aureus; assay: Bactericidal activity against Staphylococcus aureus ATCC 29213 assessed as bacterial killing at 8 times of MIC measured within 12 hrs by time-kill kinetics assay; type: functional, organism-based
[17] = Hemolytic activity in Kunming mouse erythrocytes assessed as hemolysis at 16 times of MIC measured after 1 hrs by absorbance based assay relative to control; type: toxicity, cell-based, Erythrocyte; settings: read-out: Activity
[18] = target: Signal peptidase I (Escherichia coli K-12, UniProt P00803); assay: Binding affinity to recombinant 6His-tagged Escherichia coli LepB (77 to 324 residues) extracted from Escherichia coli BL21 (DE3) cells assessed as dissociation constant by MST analysis
Signal peptidase I, sequence (P00803 whole entry, the tested form may be a part): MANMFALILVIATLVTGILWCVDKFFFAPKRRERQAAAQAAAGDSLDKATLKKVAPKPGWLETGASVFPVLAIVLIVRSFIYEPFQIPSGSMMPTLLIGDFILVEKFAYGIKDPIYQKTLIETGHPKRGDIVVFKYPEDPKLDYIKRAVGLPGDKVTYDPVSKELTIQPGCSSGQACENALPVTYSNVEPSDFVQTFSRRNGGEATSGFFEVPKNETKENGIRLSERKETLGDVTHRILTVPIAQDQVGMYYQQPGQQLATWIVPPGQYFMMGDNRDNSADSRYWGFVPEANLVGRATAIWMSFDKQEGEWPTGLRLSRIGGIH

[19] = Cytotoxicity against human Caco-2 cells assessed as cell viability at 16 times of MIC incubated for 48 hrs by CCK8 assay (reference value: 99.54 %); type: toxicity, cell-based; settings: read-out: Activity
[20] = test system: Staphylococcus aureus; assay: Antimicrobial activity against Staphylococcus aureus YZSA-21 harboring erythromycin resistance rRNA methylase C assessed as inhibition of visible growth of bacteria incubated for 20 hrs by broth microdilution method; type: functional
[21] = test system: Staphylococcus aureus; assay: Antimicrobial activity against Staphylococcus aureus YZSA-15 harboring erythromycin resistance rRNA methylase C and vancomycin resistance locus assessed as inhibition of visible growth of bacteria incubated for 20 hrs by broth microdilution method; type: functional
[22] = test system: Acinetobacter baumannii; assay: Antimicrobial activity against Acinetobacter baumannii AB11 assessed as inhibition of visible growth of bacteria incubated for 20 hrs by broth microdilution method; type: functional
[23] = test system: Klebsiella pneumoniae; assay: Antimicrobial activity against Klebsiella pneumoniae 9-1 assessed as inhibition of visible growth of bacteria incubated for 20 hrs by broth microdilution method; type: functional
[24] = test system: Staphylococcus aureus; assay: microbe, parasite or virus in culture; type: functional; settings: M147-2, time 20 hrs
Description: Antimicrobial activity against Staphylococcus aureus M147-2 harboring erythromycin resistance rRNA methylase B, tetracycline efflux protein L and chloramphenicol-florfenicol resistance methylase assessed as inhibition of visible growth of bacteria incubated for 20 hrs by broth microdilution method

[25] = test system: Streptococcus agalactiae; assay: Antimicrobial activity against Streptococcus agalactiae DL03 harboring erythromycin-resistance rRNA methylase B assessed as inhibition of visible growth of bacteria incubated for 20 hrs by broth microdilution method; type: functional
[26] = test system: Enterococcus faecium; assay: Antimicrobial activity against Enterococcus faecium QF31 harboring erythromycin resistance rRNA methylase B and chloramphenicol-florfenicol resistance methylase assessed as inhibition of visible growth of bacteria incubated for 20 hrs by broth microdilution method; type: functional
[27] = test system: Enterococcus faecalis; assay: Antimicrobial activity against Enterococcus faecalis ES01 harboring erythromycin-resistance rRNA methylase B and vanB-type vancomycin-resistance locus assessed as inhibition of visible growth of bacteria incubated for 20 hrs by broth microdilution method; type: functional
[28] = test system: Streptococcus suis; assay: Antimicrobial activity against Streptococcus suis P1/7 assessed as inhibition of visible growth of bacteria incubated for 20 hrs by broth microdilution method; type: functional
[29] = Cytotoxicity against human Caco-2 cells assessed as cell viability at 4 times of MIC incubated for 48 hrs by CCK8 assay (reference value: 99.54 %); type: toxicity, cell-based; settings: read-out: Activity
[30] = test system: Pseudomonas aeruginosa; assay: Antimicrobial activity against Pseudomonas aeruginosa PA14 assessed as inhibition of visible growth of bacteria incubated for 20 hrs by broth microdilution method; type: functional
[31] = Cytotoxicity against human HEp-2 cells assessed as cell viability at 4 times of MIC incubated for 48 hrs by CCK8 assay (reference value: 100 %); type: toxicity, cell-based; settings: read-out: Activity
[32] = test system: Streptococcus pyogenes; assay: Antimicrobial activity against Streptococcus pyogenes DL02 harboring erythromycin-resistance rRNA methylase B assessed as inhibition of visible growth of bacteria incubated for 20 hrs by broth microdilution method; type: functional
[33] = test system: Escherichia coli; assay: Antimicrobial activity against Escherichia coli ATCC 25922 assessed as inhibition of visible growth of bacteria incubated for 20 hrs by broth microdilution method; type: functional
[34] = Hemolytic activity in Kunming mouse erythrocytes assessed as hemolysis at 1 time of MIC measured after 1 hrs by absorbance based assay relative to control; type: toxicity, cell-based, Erythrocyte; settings: read-out: Activity
[35] = test system: Acinetobacter baumannii; assay: Antimicrobial activity against Acinetobacter baumannii 7979 assessed as inhibition of visible growth of bacteria incubated for 20 hrs by broth microdilution method; type: functional
[36] = test system: Enterococcus faecalis; assay: microbe, parasite or virus in culture; type: functional; settings: SF23-1, time 20 hrs
Description: Antimicrobial activity against Enterococcus faecalis SF23-1 harboring erythromycin-resistance rRNA methylase B, tetracycline efflux protein L and chloramphenicol-florfenicol resistance methylase assessed as inhibition of visible growth of bacteria incubated for 20 hrs by broth microdilution method

[37] = Hemolytic activity in Kunming mouse erythrocytes assessed as hemolysis at 4 times of MIC measured after 1 hrs by absorbance based assay relative to control; type: toxicity, cell-based, Erythrocyte; settings: read-out: Activity
[38] = test system: Enterococcus faecalis; assay: Antimicrobial activity against Enterococcus faecalis J2 harboring erythromycin-resistance rRNA methylase B and oxazolidinone phenicol transferable resistance gene assessed as inhibition of visible growth of bacteria incubated for 20 hrs by broth microdilution method; type: functional
[39] = Hemolytic activity in Kunming mouse erythrocytes assessed as hemolysis at 2 times of MIC measured after 1 hrs by absorbance based assay relative to control; type: toxicity, cell-based, Erythrocyte; settings: read-out: Activity
[40] = test system: Salmonella enteritidis; assay: Antimicrobial activity against Salmonella enteritis S1 assessed as inhibition of visible growth of bacteria incubated for 20 hrs by broth microdilution method; type: functional, Salmonella enterica subsp. enterica serovar Enteritidis; settings: Salmonella enterica
[41] = Cytotoxicity against human HEp-2 cells assessed as cell viability at 1 time of MIC incubated for 48 hrs by CCK8 assay (reference value: 100 %); type: toxicity, cell-based; settings: read-out: Activity
[42] = test system: Staphylococcus aureus; assay: Antimicrobial activity against Staphylococcus aureus ATCC 29213 assessed as inhibition of visible growth of bacteria incubated for 20 hrs by broth microdilution method; type: functional
[43] = test system: Staphylococcus aureus; assay: Bactericidal activity against Staphylococcus aureus ATCC 29213 assessed as log reduction in bacterial number at 4 times of MIC measured after 24 hrs by time-kill kinetics assay; type: functional
[44] = test system: Enterococcus faecium; assay: Antimicrobial activity against Enterococcus faecium HFY01 assessed as inhibition of visible growth of bacteria incubated for 20 hrs by broth microdilution method; type: functional
[45] = Hemolytic activity in Kunming mouse erythrocytes assessed as hemolysis at 8 times of MIC measured after 1 hrs by absorbance based assay relative to control; type: toxicity, cell-based, Erythrocyte; settings: read-out: Activity

CCCCCCc1ccc(-c2ccc(/C=C3\CC(C)Cc4c3nc3ccc(OC)cc3c4C(=O)O)cn2)cc1 (racemic)
MIC [1]: 4 µg/mL (≈ 7.68 µM)
HC50 at 1 h [2]: 34.8 µg/mL
Ratio [3]: 4
MIC [4]: 4 µg/mL (≈ 7.68 µM)
viability at 48 h, 8 times of MIC [5]: 17.8%
viability at 48 h, 2 times of MIC [6]: 73.5%
MIC [7]: 4 µg/mL (≈ 7.68 µM)
MIC [8]: 8 µg/mL (≈ 15.4 µM)
viability at 48 h, 2 times of MIC [9]: 94.1%
Activity [10]: Dose-dependent-effect
viability at 48 h, 8 times of MIC [11]: 39%
MIC [12]: 32 µg/mL (≈ 61.5 µM)
viability at 48 h, 1 time of MIC [13]: 99.7%
MIC [14]: > 128 µg/mL
viability at 48 h, 16 times of MIC [15]: 1.91%
Activity [16]: Active
hemolysis at 1 h, 16 times of MIC [17]: 72.5%
Kd [18]: 20.9 µM
viability at 48 h, 16 times of MIC [19]: 1.44%
MIC [20]: 4 µg/mL (≈ 7.68 µM)
MIC [21]: 4 µg/mL (≈ 7.68 µM)
MIC [22]: > 128 µg/mL
MIC [23]: > 128 µg/mL
MIC [24]: 4 µg/mL (≈ 7.68 µM)
MIC [25]: 8 µg/mL (≈ 15.4 µM)
MIC [26]: 4 µg/mL (≈ 7.68 µM)
MIC [27]: 4 µg/mL (≈ 7.68 µM)
MIC [28]: 32 µg/mL (≈ 61.5 µM)
viability at 48 h, 4 times of MIC [29]: 49.7%
MIC [30]: > 128 µg/mL
viability at 48 h, 4 times of MIC [31]: 64%
MIC [32]: 16 µg/mL (≈ 30.7 µM)
MIC [33]: > 128 µg/mL
hemolysis at 1 h, 1 time of MIC [34]: 0%
MIC [35]: > 128 µg/mL
MIC [36]: 8 µg/mL (≈ 15.4 µM)
hemolysis at 1 h, 4 times of MIC [37]: 0.98%
MIC [38]: 4 µg/mL (≈ 7.68 µM)
hemolysis at 1 h, 2 times of MIC [39]: 0.33%
MIC [40]: > 128 µg/mL
viability at 48 h, 1 time of MIC [41]: 101%
MIC [42]: 4 µg/mL (≈ 7.68 µM)
Activity [43]: 2.6 log10CFU/ml
MIC [44]: 4 µg/mL (≈ 7.68 µM)
hemolysis at 1 h, 8 times of MIC [45]: 55.8%
